Activity calls are given as the source filed them.
Key:
[1] = microbe, parasite or virus in culture; type: functional; conditions: Mycobacterium tuberculosis
[2] = target: T1, High affinity choline transporter 1 (Homo sapiens, UniProt Q9GZV3); experiment: human choline transporter blockers, potency – cell-based, 5-point CRC, membrane potential dye, dose response (AID 504840); type: functional
T1 sequence (Q9GZV3 whole entry): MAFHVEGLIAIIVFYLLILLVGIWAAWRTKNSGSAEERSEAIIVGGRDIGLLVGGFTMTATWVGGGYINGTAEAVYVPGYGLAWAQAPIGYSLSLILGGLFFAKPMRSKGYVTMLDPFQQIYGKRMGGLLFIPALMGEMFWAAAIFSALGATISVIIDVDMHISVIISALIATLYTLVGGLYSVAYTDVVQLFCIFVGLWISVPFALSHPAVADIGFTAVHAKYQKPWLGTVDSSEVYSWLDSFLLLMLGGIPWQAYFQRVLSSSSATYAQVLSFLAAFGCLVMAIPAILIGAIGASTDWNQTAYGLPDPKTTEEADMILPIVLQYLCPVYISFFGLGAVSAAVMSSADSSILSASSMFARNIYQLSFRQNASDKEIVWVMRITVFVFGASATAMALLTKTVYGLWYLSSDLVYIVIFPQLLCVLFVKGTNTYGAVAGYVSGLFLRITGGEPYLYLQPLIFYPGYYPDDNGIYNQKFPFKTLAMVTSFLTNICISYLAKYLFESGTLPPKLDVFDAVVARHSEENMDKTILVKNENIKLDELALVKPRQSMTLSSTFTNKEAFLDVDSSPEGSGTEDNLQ

[3] = fluconazole-exposed Candida albicans growth modulators – fluorescence, retest, confirmation (AID 2467); type: functional, cell-based
[4] = NIH-3T3 fibroblast cytotoxicity, dose response, cytotoxicity control, cell-based, fluorescence, Alamar Blue, secondary assay (AID 2327); type: functional;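 note: NIH-3T3 mouse fibroblasts cultured with fluconazole at 8 µg/mL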
[5] = Luminescence Cell-Based Dose Confirmation HTS to Identify Inhibitors of Platelet Dense Granule Release. [Related pubchem assays: 1663 (Primary HTS), 1678 (Summary of Project)]; type: functional
[6] = target: Luciferin 4-monooxygenase (Photinus pyralis, UniProt P08659); experiment: inhibition of purified Photinus pyralis luciferase – biochemical, luminescence, dose response (AID 1891)
Luciferin 4-monooxygenase, sequence (P08659 whole entry): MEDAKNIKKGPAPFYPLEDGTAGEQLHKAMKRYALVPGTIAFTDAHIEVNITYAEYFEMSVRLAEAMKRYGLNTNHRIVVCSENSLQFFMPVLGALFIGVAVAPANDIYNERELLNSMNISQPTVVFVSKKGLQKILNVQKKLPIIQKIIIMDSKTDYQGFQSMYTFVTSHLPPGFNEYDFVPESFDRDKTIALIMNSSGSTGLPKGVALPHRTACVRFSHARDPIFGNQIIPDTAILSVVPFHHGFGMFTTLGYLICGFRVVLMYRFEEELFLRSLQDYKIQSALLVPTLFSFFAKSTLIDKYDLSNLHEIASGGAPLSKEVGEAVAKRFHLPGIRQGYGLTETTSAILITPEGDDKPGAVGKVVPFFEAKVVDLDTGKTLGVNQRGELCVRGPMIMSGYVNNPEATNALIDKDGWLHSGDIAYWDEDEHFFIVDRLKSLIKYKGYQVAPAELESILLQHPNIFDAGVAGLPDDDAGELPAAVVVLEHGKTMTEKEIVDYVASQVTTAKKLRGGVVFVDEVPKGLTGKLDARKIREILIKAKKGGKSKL

[7] = target: T2, Ubiquitin-conjugating enzyme E2 N (Homo sapiens, UniProt P61088); type: functional;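 note: Dose-response confirmation in a TR-FRET assay detecting UBC13-driven polyubiquitin chain formation, inhibition measured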
T2 sequence (P61088 whole entry): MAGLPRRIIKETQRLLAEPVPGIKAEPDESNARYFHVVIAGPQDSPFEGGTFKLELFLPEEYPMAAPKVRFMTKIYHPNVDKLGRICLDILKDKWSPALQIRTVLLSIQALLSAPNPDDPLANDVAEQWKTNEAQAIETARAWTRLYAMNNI

Cytochrome P450 1A2 = target: T3, Cytochrome P450 1A2 (Homo sapiens, UniProt P05177);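 note: PubChem cytochrome P450 panel assay, CYP1A2 panel member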
T3 sequence (P05177 whole entry): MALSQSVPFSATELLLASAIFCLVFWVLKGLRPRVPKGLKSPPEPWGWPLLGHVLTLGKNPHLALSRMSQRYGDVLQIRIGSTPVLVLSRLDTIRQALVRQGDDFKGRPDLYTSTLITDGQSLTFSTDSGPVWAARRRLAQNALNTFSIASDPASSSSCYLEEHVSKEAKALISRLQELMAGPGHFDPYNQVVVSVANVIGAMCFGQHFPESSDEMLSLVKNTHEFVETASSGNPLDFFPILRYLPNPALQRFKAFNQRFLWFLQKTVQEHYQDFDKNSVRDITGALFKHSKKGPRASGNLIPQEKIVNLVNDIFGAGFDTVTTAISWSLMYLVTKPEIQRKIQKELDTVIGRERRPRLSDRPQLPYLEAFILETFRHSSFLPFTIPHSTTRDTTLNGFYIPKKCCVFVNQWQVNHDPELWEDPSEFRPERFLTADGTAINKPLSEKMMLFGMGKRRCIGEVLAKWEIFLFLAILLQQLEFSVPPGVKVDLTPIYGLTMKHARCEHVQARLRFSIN

Cytochrome P450 2C19 = Cytochrome P450 2C19 (Homo sapiens, UniProt P33261); experiment: Cytochrome panel assay with activity outcomes. Panel member name: p450-cyp2c19 Compounds with AC50 equal or less than 10 uM are considered active; type: functional; conditions: read-out: AC50
Cytochrome P450 2C19, sequence (P33261 whole entry): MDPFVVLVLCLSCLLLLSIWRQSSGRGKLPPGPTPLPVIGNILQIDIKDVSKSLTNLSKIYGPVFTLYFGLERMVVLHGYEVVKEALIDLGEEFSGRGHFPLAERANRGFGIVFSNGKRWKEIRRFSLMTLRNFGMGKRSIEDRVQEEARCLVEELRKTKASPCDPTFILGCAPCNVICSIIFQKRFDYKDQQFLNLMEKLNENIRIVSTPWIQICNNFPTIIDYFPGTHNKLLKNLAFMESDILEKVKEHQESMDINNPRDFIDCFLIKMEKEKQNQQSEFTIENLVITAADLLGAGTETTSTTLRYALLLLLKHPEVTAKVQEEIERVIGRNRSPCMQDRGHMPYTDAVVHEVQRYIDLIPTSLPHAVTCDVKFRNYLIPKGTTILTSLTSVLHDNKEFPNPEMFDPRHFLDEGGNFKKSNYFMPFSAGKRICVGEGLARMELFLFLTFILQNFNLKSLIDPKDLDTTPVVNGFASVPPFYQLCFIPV

Cytochrome P450 2D6 = Cytochrome P450 2D6 (Homo sapiens, UniProt P10635);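 note: CYP2D6 member of a cytochrome P450 panel assay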
Cytochrome P450 2D6, sequence (P10635 whole entry): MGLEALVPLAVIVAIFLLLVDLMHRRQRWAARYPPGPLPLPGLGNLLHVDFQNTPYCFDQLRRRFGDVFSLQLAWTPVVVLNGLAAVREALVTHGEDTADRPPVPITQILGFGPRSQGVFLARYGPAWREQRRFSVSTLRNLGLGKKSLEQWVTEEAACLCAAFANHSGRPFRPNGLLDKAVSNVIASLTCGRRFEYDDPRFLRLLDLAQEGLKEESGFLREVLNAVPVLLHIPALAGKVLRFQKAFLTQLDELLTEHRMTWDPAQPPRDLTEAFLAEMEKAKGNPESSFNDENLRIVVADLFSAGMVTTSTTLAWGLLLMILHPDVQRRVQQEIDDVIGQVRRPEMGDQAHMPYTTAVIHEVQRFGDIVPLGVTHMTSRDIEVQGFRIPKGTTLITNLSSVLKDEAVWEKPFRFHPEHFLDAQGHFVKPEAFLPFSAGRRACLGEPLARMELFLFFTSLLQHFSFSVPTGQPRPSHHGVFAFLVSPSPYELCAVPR

Cytochrome P450 2C9 = Cytochrome P450 2C9 (Homo sapiens, UniProt P11712)
Cytochrome P450 2C9, sequence (P11712 whole entry): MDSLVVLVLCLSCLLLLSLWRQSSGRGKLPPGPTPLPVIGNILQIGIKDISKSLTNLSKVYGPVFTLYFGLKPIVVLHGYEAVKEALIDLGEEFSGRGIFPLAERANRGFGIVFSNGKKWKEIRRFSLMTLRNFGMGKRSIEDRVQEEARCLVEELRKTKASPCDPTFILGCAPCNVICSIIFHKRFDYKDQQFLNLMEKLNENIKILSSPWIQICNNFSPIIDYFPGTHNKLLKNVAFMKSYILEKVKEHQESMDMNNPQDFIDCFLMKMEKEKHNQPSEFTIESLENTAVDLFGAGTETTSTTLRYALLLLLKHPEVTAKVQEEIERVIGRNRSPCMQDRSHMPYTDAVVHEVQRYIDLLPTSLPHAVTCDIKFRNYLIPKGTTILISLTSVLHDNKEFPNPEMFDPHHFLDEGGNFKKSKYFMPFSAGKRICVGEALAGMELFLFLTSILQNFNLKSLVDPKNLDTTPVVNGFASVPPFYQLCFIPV

[8] = test system: Streptococcus sp. 'group A'; experiment: Streptococcus pyogenes SK(-)GAS viability under kanamycin – luminescence, BacTiterGlo, confirmation, counter-screen for streptokinase expression inhibitor project, dose response (AID 1900); type: functional, organism-based
Streptococcus = experiment: GAS UMAA2166 growth inhibition – luminescence, BacTiterGlo, counter-screen for streptokinase expression inhibitor project, dose response (AID 1915); type: functional, organism-based;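 note: potency for reduction of bacterial viability or growth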
Cytochrome P450 3A4 = Cytochrome P450 3A4 (Homo sapiens, UniProt P08684);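 note: CYP3A4 tested as one member of a cytochrome P450 panel screen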
Cytochrome P450 3A4, sequence (P08684 whole entry): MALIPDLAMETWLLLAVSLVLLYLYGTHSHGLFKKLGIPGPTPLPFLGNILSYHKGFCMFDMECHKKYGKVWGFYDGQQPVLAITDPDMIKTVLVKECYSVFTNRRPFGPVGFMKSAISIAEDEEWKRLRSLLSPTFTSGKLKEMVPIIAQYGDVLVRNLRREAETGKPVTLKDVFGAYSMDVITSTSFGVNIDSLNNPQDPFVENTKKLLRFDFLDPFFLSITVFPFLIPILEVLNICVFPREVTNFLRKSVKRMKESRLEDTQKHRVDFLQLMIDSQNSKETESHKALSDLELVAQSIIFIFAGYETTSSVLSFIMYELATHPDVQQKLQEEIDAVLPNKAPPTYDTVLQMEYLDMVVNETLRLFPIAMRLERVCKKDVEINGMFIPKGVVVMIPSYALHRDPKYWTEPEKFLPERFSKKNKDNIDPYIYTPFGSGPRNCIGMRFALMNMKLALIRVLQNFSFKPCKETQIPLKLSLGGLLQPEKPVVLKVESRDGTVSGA

[9] = Luminescence Cell-Based Dose Response HTS to Identify Inhibitors of 5'UTR Stem-Loop Driven Prion Protein mRNA Translation in H4 Neuroglioblastoma Cells. [Related pubchem assays: 1827 (Project Summary), 1813 (Primary HTS)]; type: functional
[10] = alpha-synuclein stem-loop luciferase translation blockers – H4 neuroglioma cells, luminescence, confirmation (AID 1988); type: functional, cell-based
[11] = luciferase reporter signal suppression in cells – H4 neuroglioma cells, luminescence, dose response (AID 1990); type: functional, cell-based
[12] = Trypanosoma cruzi growth suppression in host cells – NIH3T3 host cells, beta-gal luminescence, confirmation (AID 2044); type: functional, cell-based;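 note: intracellular parasites grown in NIH/3T3 mouse fibroblasts as host cells; luminescent beta-galactosidase reporter signal from transgenic T. cruzi replicating inside host cells; inhibitors lower the luminescence signal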
[13] = NIH3T3 cell viability loss – ATP luminescence, mouse fibroblasts, counter-screen, dose response (AID 2010); type: functional, cell-based;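 note: cells exposed to compound for about 90 hours before reading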

Nc1ccn([C@@H]2O[C@H](CO)[C@@H](O)C2O)c(=O)n1 (stereo partly specified) [CYTARABINE]
CC50 [1]: 1.8 µM (active)

CCn1cc(C(=O)N2CCCCC2)c(=O)c2cc(S(=O)(=O)N3CCC(C)CC3)ccc21
IC50 [2]: 16.2 µM (active)

O=C(NCC1CCCO1)c1cc2n(n1)C(C(F)(F)F)CC(c1ccc(Br)cc1)N2 (stereo unspecified)
EC50 [3]: > 38 µM (not active)
EC50 [4]: > 160 µM (inactive)

O=C(NCc1ccccc1)C(c1cccnc1)N(C(=O)c1ccccn1)c1ccccc1F (stereo unspecified)
EC50 [5]: > 112 µM (not active)
EC50 [6]: > 112 µM (not active)

O=C(NC1CCCCCCC1)c1ccc(S(=O)(=O)N2CCCC2)cc1
IC50 [2]: 14.5 µM (active)

CCOCCN1CCN(c2c(CC)c(C)nc3cc(-c4cc(OC)cc(OC)c4)nn23)CC1
CC50 [1]: > 40 µM (active)

Clc1cccc(-c2cc3nc4c(c(NCc5ccco5)n3n2)CCCC4)c1
CC50 [1]: 23.7 µM (active)

O=C(Nc1cccnc1)c1cc(-c2ccc(Cl)c(Cl)c2)on1
EC50 [5]: > 112 µM (not active)
EC50 [6]: > 112 µM (not active)

COc1cc2sc(-c3ccc(S(C)(=O)=O)cc3)c(C(=O)NCCCCO)c2cc1OC
IC50 [7]: > 20 µM (inactive)

C[N+](C)(CCCOc1ccccc1)c1ccccc1.O=C([O-])c1cc2ccccc2cc1O
AC50 (Cytochrome P450 1A2): 12.6 µM (inconclusive)

CCCc1cc(=O)oc2cc(OCC(=O)N3CCc4ccccc43)ccc12
AC50 (Cytochrome P450 2C19): 1 µM (inconclusive)
EC50 [5]: > 112 µM (not active)
EC50 [6]: > 112 µM (not active)

O=C(CC(CC(=O)c1ccc(Cl)cc1)c1ccccc1C(=O)O)c1ccc(Cl)cc1
IC50 [2]: 13.8 µM (active)

CC1(C)CC(=O)C2=C(C1)N(c1ccccc1)C(=O)CC2c1ccsc1 (stereo unspecified)
EC50 [5]: > 112 µM (not active)
EC50 [6]: > 112 µM (not active)

COc1cc2c(C(=O)N3CCN(c4cccc(Cl)c4)CC3)cn(CC(C)C)c(=O)c2cc1OC
CC50 [1]: > 40 µM (active)

CCc1ccccc1NC(=O)C1C(c2ccccc2)C1(Cl)Cl (stereo unspecified)
AC50 (Cytochrome P450 1A2): 17.8 µM (inconclusive)
AC50 (Cytochrome P450 2D6): 11.2 µM (inconclusive)
AC50 (Cytochrome P450 2C9): 20 µM (inconclusive)

CCCC(/C=C/c1ccc(OC(C)=O)cc1)=C1/c2ccccc2C(=O)N1c1ccccc1
CC50 [1]: 12.8 µM (active)

C=C(C)COc1ccc(-c2[nH]nc(C)c2-c2ccccc2)c(O)c1
EC50 [8]: 9.45 µM (active)
EC50 [3]: 2.67 µM (active)
EC50 [4]: 93.6 µM (active)
EC50 (Streptococcus): 16.4 µM (active)

c1ccc2c(C[C@@H]3CNCCN3CC3CCCCC3)cccc2c1
IC50 [7]: > 20 µM (inactive)

CN1C[C@H](C(=O)N[C@@]2(C)O[C@@]3(O)[C@H]4CCCN4C(=O)[C@@H](Cc4ccccc4)N3C2=O)C=C2c3cccc4[nH]cc(c34)C[C@@H]21
AC50 (Cytochrome P450 1A2): 3.16 µM (inconclusive)

CCN(C[C@H]1N[C@@](Cc2ccccc2)(C(=O)OC)[C@H]2C(=O)N(Cc3ccccc3)C(=O)[C@@H]12)C(=O)Nc1ccc(C(F)(F)F)cc1
CC50 [1]: 39.5 µM (active)

Nc1ncnc2c1ncn2C1CCCC1
AC50 (Cytochrome P450 1A2): 20 µM (inconclusive)
AC50 (Cytochrome P450 3A4): 0.0398 µM (inconclusive)

COc1ccc(C(=O)N2CC3(CC(c4cccc([N+](=O)[O-])c4)=NO3)C[C@H]2C(=O)NCC(N)=O)cc1 (stereo partly specified)
AC50 (Cytochrome P450 1A2): 28.2 µM (inconclusive)

C#CCOCCOCCOCCNc1nc(N2CCOCC2)nc(N2CCN(C(=O)CCCCCCCCCCNC(=O)[C@H]([C@@H](C)CC)n3cc(CCCCN=C(N)N)nn3)CC2)n1
IC50 [7]: > 20 µM (inactive)

CCOc1cc(N2CCOCC2)c(OCC)cc1NC(=O)c1nc2nc(C)cc(C)n2n1
EC50 [3]: > 38 µM (not active)
EC50 [4]: > 160 µM (inactive)

NC(=O)C1(N2CCCCC2)CCN(C(=O)Nc2ccccc2C(F)(F)F)CC1
EC50 [5]: > 112 µM (not active)
EC50 [6]: > 112 µM (not active)

COc1ccc(Nc2cc3n(c(=O)n2)CCc2cc(OC)c(OC)cc2-3)c(C)c1
EC50 [9]: 41.3 µM (active)
EC50 [10]: 35.6 µM (active)
EC50 [11]: 17.3 µM (active)
EC50 [5]: 0.987 µM (active)
EC50 [6]: > 112 µM (not active)

Cc1ccc(-c2csc3ncnc(Nc4ccc(N5CCOCC5)cc4)c23)cc1
CC50 [1]: > 40 µM (active)

COc1ccccc1/C=C/CN1CCCC(CO)(Cc2cccc(Cl)c2)C1 (stereo unspecified)
EC50 [5]: > 112 µM (not active)
EC50 [6]: > 112 µM (not active)

CCOC(=O)c1ccccc1N/C=C/C(=O)c1cccs1
IC50 [2]: 13.2 µM (active)

O=C(Nc1nc2ccc(S(=O)(=O)N3CCCCC3)cc2s1)c1ccncc1
EC50 [3]: 1.95 µM (active)
EC50 [4]: 130 µM (active)

C/C1=N/NC(=S)NCCCN2CCN(CCCNC(=S)N/N=C(/C)C=NNC(=S)NCCCN3CCN(CCCNC(=S)NN=C1)CC3)CC2
AC50 (Cytochrome P450 1A2): 3.16 µM (inconclusive)

CC(C)CCNCC(=O)NC(c1ccccc1)c1ccccc1
EC50 [3]: > 38 µM (not active)
EC50 [4]: > 160 µM (inactive)

CC[N+](CC)(CCCNC1=CC(=O)C(NCCC[N+](CC)(CC)Cc2ccccc2)=CC1=O)Cc1ccccc1 [BENZOQUINONIUM]
AC50 (Cytochrome P450 1A2): 31.6 µM (inconclusive)

CCn1cc([N+](=O)[O-])c(C(=O)N2N=C(c3ccc4ccccc4c3)CC2c2ccccc2O)n1 (stereo unspecified)
CC50 [1]: 33.1 µM (active)

COc1ccc(-c2cc(C(F)(F)F)nc(SCC(=O)NCCN3CCOCC3)n2)cc1OC
EC50 [5]: 47.9 µM (active)
EC50 [6]: > 112 µM (not active)

CN(C)C=O.CNC(=O)CSc1nc2nc(C)cc(C)n2n1
EC50 [5]: > 112 µM (not active)
EC50 [6]: > 112 µM (not active)

CCOc1ccccc1Nc1cc2n(c(=O)n1)CCc1cc(OC)c(OC)cc1-2
EC50 [9]: 30.7 µM (active)
EC50 [10]: 9.81 µM (active)
EC50 [11]: 47.8 µM (active)
EC50 [5]: 1.23 µM (active)
EC50 [6]: > 112 µM (not active)

COCCn1c(=O)c(-c2cn(C)c3ccccc23)nc2cnc(N3CCNCC3)nc21
AC50 (Cytochrome P450 1A2): 12.6 µM (inconclusive)

O=C(O)C=Cc1ccc(Cn2ccnc2)cc1
AC50 (Cytochrome P450 1A2): 31.6 µM (inconclusive)

CS(=O)(=O)N1CCC[C@@]2(CCN(c3ccccc3)C2)C1
AC50 (Cytochrome P450 1A2): 31.6 µM (inconclusive)
AC50 (Cytochrome P450 2C9): 25.1 µM (inconclusive)

COc1ccc(Nc2cc3n(c(=O)n2)CCc2cc(OC)c(OC)cc2-3)cc1
EC50 [5]: 4.68 µM (active)
EC50 [6]: > 112 µM (not active)

OCc1ccccc1OCCOc1ccc(Cl)c2cccnc12
IC50 [2]: 11.5 µM (active)

CCOc1cc(/C=N/NC(=O)CN2CCCCC2)ccc1OCc1cccc(Cl)c1
IC50 [2]: 14.5 µM (active)

COc1ccc(C(=O)Nc2ccc(Cl)cc2C(=O)NCCN2CCOCC2)cc1
AC50 (Cytochrome P450 1A2): 22.4 µM (inconclusive)

Cc1ccc(C(=O)C[n+]2cccc3ccccc32)cc1
EC50 [12]: 32.4 µM (active)
IC50 [2]: 13.8 µM (active)
EC50 [13]: > 60 µM (not active)

— ChEMBL document CHEMBL1201862, “PubChem BioAssay data set” (2004)
